Test results: ChEMBL document CHEMBL5584296, “Discovery of Novel Pyrimidine-Based Derivatives as Nav1.2 Inhibitors with Efficacy in Mouse Models of Epilepsy” (J Med Chem, 2024)

Key:
[1] = Neurotoxicity in male ICR mouse administered intraperitoneally for 30 mins; assay type: toxicity; conditions: in vivo, route ip
[2] = Drug concentration in male ICR mouse brain at 20 mg/kg, po measured after 0.5 hrs by LC-MS/MS analysis; assay type: ADME, organism-based; conditions: read-out: Ct
[3] = target: Sodium channel protein type 1 subunit alpha (Homo sapiens) (UniProt P35498); experiment: Inhibition of human Nav1.1 expressed in HEK293 cells assessed as test to control ratio at 0.1 uM by whole cell voltage clamp electrophysiological analysis; assay type: cell-based
[4] = MRT (0 to infinity) in male ICR mouse at 10 mg/kg, ip measured after 24 hrs by LC-MS/MS analysis; assay type: ADME, organism-based; conditions: in vivo
[5] = target: T1, Sodium channel protein type 2 subunit alpha (Homo sapiens, UniProt Q99250); experiment: Inhibition of human Nav1.2 expressed in HEK293 cells assessed as test to control ratio at 0.1 uM measured after 5 mins by whole cell voltage clamp electrophysiological analysis; assay type: cell-based
Target sequence in this assay (Q99250 whole entry, looked up): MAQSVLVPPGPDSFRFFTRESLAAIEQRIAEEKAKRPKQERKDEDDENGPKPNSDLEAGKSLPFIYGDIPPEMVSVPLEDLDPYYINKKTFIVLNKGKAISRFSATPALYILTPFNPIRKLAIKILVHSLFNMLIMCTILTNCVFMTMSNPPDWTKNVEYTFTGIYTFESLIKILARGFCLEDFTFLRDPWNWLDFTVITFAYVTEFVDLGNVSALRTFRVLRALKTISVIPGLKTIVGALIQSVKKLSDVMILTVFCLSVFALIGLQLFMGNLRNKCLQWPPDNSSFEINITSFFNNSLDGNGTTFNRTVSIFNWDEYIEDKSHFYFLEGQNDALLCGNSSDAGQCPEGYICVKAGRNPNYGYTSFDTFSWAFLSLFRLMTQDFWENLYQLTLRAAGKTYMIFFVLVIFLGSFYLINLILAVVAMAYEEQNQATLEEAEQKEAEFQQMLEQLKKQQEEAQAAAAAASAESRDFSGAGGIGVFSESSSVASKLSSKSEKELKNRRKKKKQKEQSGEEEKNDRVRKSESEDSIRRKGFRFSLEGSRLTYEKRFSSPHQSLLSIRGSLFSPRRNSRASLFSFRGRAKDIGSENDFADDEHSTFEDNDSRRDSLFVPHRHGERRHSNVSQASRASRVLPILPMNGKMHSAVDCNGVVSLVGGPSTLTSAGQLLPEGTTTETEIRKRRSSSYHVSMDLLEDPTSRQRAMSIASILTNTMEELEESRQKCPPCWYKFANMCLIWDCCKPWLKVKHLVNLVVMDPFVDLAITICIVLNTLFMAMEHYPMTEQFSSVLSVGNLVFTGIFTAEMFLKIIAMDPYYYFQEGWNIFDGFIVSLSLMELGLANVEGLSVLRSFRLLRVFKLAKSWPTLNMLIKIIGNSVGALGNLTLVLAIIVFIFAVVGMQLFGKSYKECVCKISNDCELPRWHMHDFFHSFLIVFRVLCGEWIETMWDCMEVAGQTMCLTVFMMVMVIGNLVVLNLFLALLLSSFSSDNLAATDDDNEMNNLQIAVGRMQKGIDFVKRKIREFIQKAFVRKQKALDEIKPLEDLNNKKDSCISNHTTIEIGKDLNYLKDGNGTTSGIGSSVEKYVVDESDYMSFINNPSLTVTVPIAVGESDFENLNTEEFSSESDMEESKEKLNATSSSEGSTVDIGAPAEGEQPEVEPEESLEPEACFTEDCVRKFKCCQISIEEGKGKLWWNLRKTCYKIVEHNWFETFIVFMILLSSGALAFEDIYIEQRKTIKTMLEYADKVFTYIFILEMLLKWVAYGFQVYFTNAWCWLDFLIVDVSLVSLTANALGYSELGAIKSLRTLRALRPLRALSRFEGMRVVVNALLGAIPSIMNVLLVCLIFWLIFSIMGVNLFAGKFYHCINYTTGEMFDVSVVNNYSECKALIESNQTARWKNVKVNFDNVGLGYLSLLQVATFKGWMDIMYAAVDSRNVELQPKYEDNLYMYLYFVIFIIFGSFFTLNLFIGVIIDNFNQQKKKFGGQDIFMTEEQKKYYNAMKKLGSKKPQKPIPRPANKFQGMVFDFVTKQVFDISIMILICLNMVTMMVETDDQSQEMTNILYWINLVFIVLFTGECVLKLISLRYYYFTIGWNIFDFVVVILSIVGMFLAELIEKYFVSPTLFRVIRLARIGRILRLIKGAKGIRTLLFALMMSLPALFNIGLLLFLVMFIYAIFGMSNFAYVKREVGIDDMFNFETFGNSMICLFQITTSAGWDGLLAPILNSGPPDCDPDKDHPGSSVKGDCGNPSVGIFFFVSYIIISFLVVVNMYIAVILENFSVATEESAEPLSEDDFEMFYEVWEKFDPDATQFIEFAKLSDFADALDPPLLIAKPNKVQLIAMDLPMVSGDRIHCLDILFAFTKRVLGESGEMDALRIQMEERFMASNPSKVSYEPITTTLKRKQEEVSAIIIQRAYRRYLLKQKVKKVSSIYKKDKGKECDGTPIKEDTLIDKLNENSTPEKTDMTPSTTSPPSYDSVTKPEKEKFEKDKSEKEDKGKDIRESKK

[6] = Drug concentration in male ICR mouse brain at 10 mg/kg, ip measured after 0.25 hrs by LC-MS/MS analysis; assay type: ADME, organism-based; conditions: read-out: Ct
[7] = Oral bioavailability in male ICR mouse at 20 mg/kg measured after 24 hrs by LC-MS/MS analysis; assay type: ADME, organism-based; conditions: in vivo
[8] = Tmax in male ICR mouse at 20 mg/kg, po measured after 24 hrs by LC-MS/MS analysis; assay type: ADME, organism-based; conditions: in vivo
[9] = target: T1, Sodium channel protein type 2 subunit alpha; experiment: Inhibition of human Nav1.2 expressed in HEK293 cells at -40 mv holding potential measured after 5 mins by whole cell voltage clamp electrophysiological analysis; assay type: cell-based
Target sequence in this assay (Q99250 whole entry): as the sequence (Q99250 whole entry, looked up) above

[10] = Drug concentration in male ICR mouse plasma at 10 mg/kg, ip measured after 0.5 hrs by LC-MS/MS analysis; assay type: ADME, organism-based
[11] = Drug concentration in male ICR mouse cerebrospinal fluid at 20 mg/kg, po measured after 0.25 hrs by LC-MS/MS analysis; assay type: ADME, organism-based; conditions: read-out: Ct
[12] = Ratio of drug concentration in male ICR mouse brain to plasma at 10 mg/kg, ip measured after 0.25 hrs by LC-MS/MS analysis; assay type: ADME, organism-based; conditions: read-out: BPR
[13] = Neurotoxicity in male ICR mouse assessed as motor impairment at 25 mg/kg, ip administered for 30 mins by rotarod test relative to control; assay type: toxicity, organism-based; conditions: in vivo, 0.5 h
[14] = target: T2, Sodium channel protein type 5 subunit alpha (Homo sapiens, UniProt Q14524); experiment: Inhibition of human Nav1.5 expressed in CHL cells assessed as test to control ratio at 1 uM by whole cell voltage clamp electrophysiological analysis; assay type: cell-based
T2 sequence (Q14524 whole entry): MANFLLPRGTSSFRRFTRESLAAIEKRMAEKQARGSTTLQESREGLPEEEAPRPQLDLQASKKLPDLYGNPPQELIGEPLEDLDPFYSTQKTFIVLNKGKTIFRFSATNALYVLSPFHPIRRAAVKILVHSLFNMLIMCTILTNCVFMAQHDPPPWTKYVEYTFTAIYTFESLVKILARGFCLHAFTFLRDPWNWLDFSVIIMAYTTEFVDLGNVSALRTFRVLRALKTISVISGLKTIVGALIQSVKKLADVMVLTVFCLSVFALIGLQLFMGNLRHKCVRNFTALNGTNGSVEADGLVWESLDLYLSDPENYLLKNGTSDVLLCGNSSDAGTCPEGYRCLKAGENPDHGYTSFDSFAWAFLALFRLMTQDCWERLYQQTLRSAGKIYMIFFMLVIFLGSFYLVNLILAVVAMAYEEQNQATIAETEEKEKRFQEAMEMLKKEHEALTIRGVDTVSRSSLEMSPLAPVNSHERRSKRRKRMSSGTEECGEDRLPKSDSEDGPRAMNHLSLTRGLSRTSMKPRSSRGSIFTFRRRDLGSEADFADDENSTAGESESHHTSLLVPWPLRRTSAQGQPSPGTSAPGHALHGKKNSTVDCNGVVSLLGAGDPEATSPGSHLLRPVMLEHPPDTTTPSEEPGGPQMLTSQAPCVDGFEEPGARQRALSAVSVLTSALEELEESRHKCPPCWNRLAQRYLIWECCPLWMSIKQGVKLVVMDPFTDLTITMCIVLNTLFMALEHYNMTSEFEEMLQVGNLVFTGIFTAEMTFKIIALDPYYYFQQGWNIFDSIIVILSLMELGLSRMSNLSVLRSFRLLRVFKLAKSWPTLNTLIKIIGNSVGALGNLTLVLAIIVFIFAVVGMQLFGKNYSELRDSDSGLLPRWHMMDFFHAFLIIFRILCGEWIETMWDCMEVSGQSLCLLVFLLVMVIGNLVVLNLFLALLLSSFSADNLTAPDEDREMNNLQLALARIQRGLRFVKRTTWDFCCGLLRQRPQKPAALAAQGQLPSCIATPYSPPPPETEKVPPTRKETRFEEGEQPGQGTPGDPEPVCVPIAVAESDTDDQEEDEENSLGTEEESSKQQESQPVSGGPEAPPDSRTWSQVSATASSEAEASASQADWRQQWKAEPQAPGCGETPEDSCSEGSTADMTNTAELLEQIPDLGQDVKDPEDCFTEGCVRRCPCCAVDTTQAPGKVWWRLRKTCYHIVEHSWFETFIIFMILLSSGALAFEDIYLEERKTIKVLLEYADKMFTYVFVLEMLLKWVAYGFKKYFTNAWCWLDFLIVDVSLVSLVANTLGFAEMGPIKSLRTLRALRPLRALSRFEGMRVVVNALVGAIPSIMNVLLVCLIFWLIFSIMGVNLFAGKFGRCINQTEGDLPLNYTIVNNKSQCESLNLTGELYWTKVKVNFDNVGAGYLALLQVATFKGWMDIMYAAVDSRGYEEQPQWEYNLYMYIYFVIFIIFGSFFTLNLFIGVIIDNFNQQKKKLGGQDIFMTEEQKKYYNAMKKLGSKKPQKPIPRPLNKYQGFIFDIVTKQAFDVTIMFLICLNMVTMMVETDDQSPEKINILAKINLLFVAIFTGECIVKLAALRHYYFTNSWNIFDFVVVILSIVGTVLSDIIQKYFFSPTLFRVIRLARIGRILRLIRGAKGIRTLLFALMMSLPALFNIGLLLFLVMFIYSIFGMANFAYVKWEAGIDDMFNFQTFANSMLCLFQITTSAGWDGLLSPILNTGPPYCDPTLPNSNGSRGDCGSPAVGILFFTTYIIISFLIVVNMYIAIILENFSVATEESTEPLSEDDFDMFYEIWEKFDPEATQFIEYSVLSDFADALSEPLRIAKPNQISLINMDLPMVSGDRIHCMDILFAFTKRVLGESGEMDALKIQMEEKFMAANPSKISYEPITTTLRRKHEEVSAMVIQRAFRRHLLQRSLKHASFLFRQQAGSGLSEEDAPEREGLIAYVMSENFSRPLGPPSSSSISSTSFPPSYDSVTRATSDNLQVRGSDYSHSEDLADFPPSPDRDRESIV

[15] = Half-life in male ICR mouse at 10 mg/kg, ip measured after 24 hrs by LC-MS/MS analysis; assay type: ADME, organism-based; conditions: in vivo
[16] = Ratio of drug concentration in male ICR mouse brain to plasma at 10 mg/kg, ip measured after 0.5 hrs by LC-MS/MS analysis; assay type: ADME, organism-based; conditions: read-out: BPR
[17] = target: T1, Sodium channel protein type 2 subunit alpha; experiment: Inhibition of human Nav1.2 expressed in HEK293 cells assessed as test to control ratio at 10 uM measured after 5 mins by whole cell voltage clamp electrophysiological analysis; assay type: cell-based
Target sequence in this assay (Q99250 whole entry, looked up): as the sequence (Q99250 whole entry, looked up) above

[18] = Neurotoxicity in male ICR mouse assessed as motor impairment at 20 mg/kg, ip administered for 30 mins by rotarod test relative to control; assay type: toxicity, organism-based; conditions: in vivo, 0.5 h
[19] = target: T2, Sodium channel protein type 5 subunit alpha; experiment: Inhibition of human Nav1.5 expressed in CHL cells assessed as test to control ratio at 0.1 uM by whole cell voltage clamp electrophysiological analysis; assay type: cell-based
[20] = Half-life in male ICR mouse at 1 mg/kg, iv measured after 24 hrs by LC-MS/MS analysis; assay type: ADME, organism-based; conditions: in vivo
[21] = Cmax in male ICR mouse at 20 mg/kg, po measured after 24 hrs by LC-MS/MS analysis; assay type: ADME, organism-based; conditions: in vivo
[22] = Drug concentration in male ICR mouse cerebrospinal fluid at 10 mg/kg, ip measured after 0.25 hrs by LC-MS/MS analysis; assay type: ADME, organism-based; conditions: read-out: Ct
[23] = MRT (0 to infinity) in male ICR mouse at 1 mg/kg, iv measured after 24 hrs by LC-MS/MS analysis; assay type: ADME, organism-based; conditions: in vivo
[24] = target: T1, Sodium channel protein type 2 subunit alpha; experiment: Inhibition of human Nav1.2 expressed in HEK293 cells assessed as effect on steady state activation by measuring half activation potential at 10 uM (reference value: -33 mV); assay type: cell-based
Target sequence in this assay (Q99250 whole entry, looked up): as above

[25] = Half-life in male ICR mouse at 20 mg/kg, po measured after 24 hrs by LC-MS/MS analysis; assay type: ADME, organism-based; conditions: in vivo
[26] = target: Sodium channel protein type 8 subunit alpha (Homo sapiens) (UniProt Q9UQD0); experiment: Inhibition of human Nav1.6 expressed in CHO cells assessed as test to control ratio at 1 uM by whole cell voltage clamp electrophysiological analysis; assay type: cell-based
[27] = Tmax in male ICR mouse at 10 mg/kg, ip measured after 24 hrs by LC-MS/MS analysis; assay type: ADME, organism-based; conditions: in vivo
[28] = Cmax in male ICR mouse at 1 mg/kg, iv measured after 24 hrs by LC-MS/MS analysis; assay type: ADME, organism-based; conditions: in vivo
[29] = Drug concentration in male ICR mouse brain at 20 mg/kg, po measured after 0.25 hrs by LC-MS/MS analysis; assay type: ADME, organism-based; conditions: read-out: Ct
[30] = Tmax in male ICR mouse at 1 mg/kg, iv measured after 24 hrs by LC-MS/MS analysis; assay type: ADME, organism-based; conditions: in vivo
[31] = Bioavailability in male ICR mouse at 10 mg/kg, ip measured after 24 hrs by LC-MS/MS analysis; assay type: ADME, organism-based; conditions: in vivo
Mus musculus [32] = experiment: Antiepileptic activity in 6 Hz(32 mA)-induced seizure male C57BL mouse model assessed as protection against seizure at 100 mg/kg, ip administered for 30 mins by epilepsy test; assay type: functional; conditions: 0.5 h
[33] = Ratio of drug concentration in male ICR mouse brain to plasma at 20 mg/kg, po measured after 0.5 hrs by LC-MS/MS analysis; assay type: ADME, organism-based; conditions: read-out: BPR
[34] = Drug concentration in male ICR mouse brain at 10 mg/kg, ip measured after 0.5 hrs by LC-MS/MS analysis; assay type: ADME, organism-based; conditions: read-out: Ct
[35] = target: T1, Sodium channel protein type 2 subunit alpha; experiment: Inhibition of human Nav1.2 expressed in HEK293 cells assessed as effect on steady state inactivation by measuring half activation potential at 10 uM (reference value: -65 mV); assay type: cell-based
Target sequence in this assay (Q99250 whole entry, looked up): as above

[36] = Neurotoxicity in male ICR mouse assessed as motor impairment at 30 mg/kg, ip administered for 30 mins by rotarod test relative to control; assay type: toxicity, organism-based; conditions: in vivo, 0.5 h
[37] = AUC (0 to infinity) in male ICR mouse at 20 mg/kg, po measured after 24 hrs by LC-MS/MS analysis; assay type: ADME, organism-based; conditions: in vivo
[38] = target: T1, Sodium channel protein type 2 subunit alpha; experiment: Inhibition of human Nav1.2 expressed in HEK293 cells assessed as test to control ratio at 1 uM measured after 5 mins by whole cell voltage clamp electrophysiological analysis; assay type: cell-based
Target sequence in this assay (Q99250 whole entry, looked up): as above

Mus musculus [39] = experiment: Antiepileptic activity in MES-induced seizure male ICR mouse model assessed as protection against tonic hind limb extension at 2 mg/kg, ip measured after 30 mins relative to control; assay type: functional; conditions: 0.5 h
Mus musculus [40] = experiment: Antiepileptic activity in MES-induced seizure male ICR mouse model assessed as protection against tonic hind limb extension at 5 mg/kg, ip measured after 30 mins relative to control; assay type: functional; conditions: 0.5 h
[41] = target: T1, Sodium channel protein type 2 subunit alpha; experiment: Inhibition of human Nav1.2 expressed in HEK293 cells at 0.1 uM measured after 5 mins by whole cell voltage clamp electrophysiological analysis relative to control; assay type: cell-based
Target sequence in this assay (Q99250 whole entry, looked up): as above

Compound: COc1cccc(-c2cc(N3CCCc4ccccc4C3)nc(N)n2)c1
- TD50 at 0.5 h [1]: 26.1 mg/kg
- concentration at 0.5 h [2]: 59.3 ng/g
- T/C [3]: 0.65
- MRT inf [4]: 51 min
- T/C [5]: 0.6
- concentration at 0.25 h [6]: 1900 ng/g
- bioavailability [7]: 3%
- Tmax [8]: 15 min
- IC50 [9]: 0.12 µM
- concentration at 0.5 h [10]: 221 ng/mL
- concentration at 0.25 h [11]: 22.1 ng/g
- Kp at 0.25 h [12]: 3.1
- Activity [13]: 18%
- T/C [14]: 0.06
- half-life [15]: 56.4 min
- Kp at 0.5 h [16]: 3.6
- T/C [17]: 0.02
- Activity [18]: 13%
- T/C [19]: 0.87
- half-life [20]: 31.2 min
- Cmax [21]: 63.4 ng/mL
- concentration at 0.25 h [22]: 11.7 ng/g
- MRT inf [23]: 33.6 min
- V1/2 [24]: -31 mV
- half-life [25]: 82.8 min
- T/C [26]: 0.06
- Tmax [27]: 7.2 min
- Cmax [28]: 389 ng/mL
- concentration at 0.25 h [29]: 646 ng/g
- Tmax [30]: 3 min
- bioavailability [31]: 43%
- Activity (Mus musculus [32]): 25%
- Kp at 0.5 h [33]: 3.2
- concentration at 0.5 h [34]: 800 ng/g
- V1/2 [35]: -77 mV
- Activity [36]: 88%
- AUC(0-inf) [37]: 118 ng·h/mL
- T/C [38]: 0.03
- Activity (Mus musculus [39]): 25%
- Activity (Mus musculus [40]): 80%
- inhibition [41]: 40%
